From PubChem BioAssay AID1259407 (Chemical Carcinogenesis Research Information System (CCRIS), 2018)
Active and inactive are the calls of the source. The rule behind the calls is not given here.

Test system: CCRIS mutagenicity, Ames/micronucleus/aberration tests
Test: CCRIS mutagenicity studies
Details: Test System: AMES SALMONELLA TYPHIMURIUM

C1O[C@@H]1[C@@H]1CO1
mutagenic call (Strain/Indicator: TA98, Metabolic Activation: HAMSTER, LIVER, S-9, AROCLOR 1254, Method: PREINCUBATION): inactive; negative | mutagenic call (Strain/Indicator: TA98, Metabolic Activation: HAMSTER, LIVER, S-9, AROCLOR 1254, Method: STANDARD PLATE): inactive; negative | mutagenic call (Strain/Indicator: TA98, Metabolic Activation: HAMSTER, LIVER, S-9, Method: PREINCUBATION): inactive; negative | mutagenic call (Strain/Indicator: TA98, Metabolic Activation: HAMSTER, LIVER, S-9, Method: STANDARD PLATE): inactive; negative | mutagenic call (Strain/Indicator: TA98, Metabolic Activation: MOUSE, LIVER, S-9, AROCLOR 1254, Method: PREINCUBATION): inactive; negative | mutagenic call (Strain/Indicator: TA98, Metabolic Activation: MOUSE, LIVER, S-9, AROCLOR 1254, Method: STANDARD PLATE): inactive; negative | mutagenic call (Strain/Indicator: TA98, Metabolic Activation: MOUSE, LIVER, S-9, Method: PREINCUBATION): inactive; negative | mutagenic call (Strain/Indicator: TA98, Metabolic Activation: MOUSE, LIVER, S-9, Method: STANDARD PLATE): inactive; negative | mutagenic call (Strain/Indicator: TA98, Metabolic Activation: NONE, Method: PREINCUBATION): inactive; negative | mutagenic call (Strain/Indicator: TA98, Metabolic Activation: NONE, Method: STANDARD PLATE): inactive; negative | mutagenic call (Strain/Indicator: TA98, Metabolic Activation: RAT, LIVER, S-9, AROCLOR 1254, Method: PREINCUBATION): inactive; negative | mutagenic call (Strain/Indicator: TA98, Metabolic Activation: RAT, LIVER, S-9, Method: PREINCUBATION): inactive; negative | mutagenic call (Strain/Indicator: TA98, Metabolic Activation: RAT, LIVER, S-9, Method: STANDARD PLATE): inactive; negative | mutagenic call (Strain/Indicator: TA100, Metabolic Activation: HAMSTER, LIVER, S-9, AROCLOR 1254, Method: PREINCUBATION): inactive; negative | mutagenic call (Strain/Indicator: TA100, Metabolic Activation: HAMSTER, LIVER, S-9, AROCLOR 1254, Method: STANDARD PLATE): active; positive | mutagenic call (Strain/Indicator: TA100, Metabolic Activation: HAMSTER, LIVER, S-9, Method: PREINCUBATION): inactive; negative | mutagenic call (Strain/Indicator: TA100, Metabolic Activation: HAMSTER, LIVER, S-9, Method: STANDARD PLATE): active; positive | mutagenic call (Strain/Indicator: TA100, Metabolic Activation: MOUSE, LIVER, S-9, AROCLOR 1254, Method: PREINCUBATION): inactive; negative | mutagenic call (Strain/Indicator: TA100, Metabolic Activation: MOUSE, LIVER, S-9, AROCLOR 1254, Method: STANDARD PLATE): active; positive | mutagenic call (Strain/Indicator: TA100, Metabolic Activation: MOUSE, LIVER, S-9, Method: PREINCUBATION): inactive; negative | mutagenic call (Strain/Indicator: TA100, Metabolic Activation: NONE, Method: PREINCUBATION): inactive; negative | mutagenic call (Strain/Indicator: TA100, Metabolic Activation: NONE, Method: STANDARD PLATE): active; positive | mutagenic call (Strain/Indicator: TA100, Metabolic Activation: RAT, LIVER, S-9, AROCLOR 1254, Method: PREINCUBATION): inactive; negative | mutagenic call (Strain/Indicator: TA100, Metabolic Activation: RAT, LIVER, S-9, Method: PREINCUBATION): inactive; negative | mutagenic call (Strain/Indicator: TA100, Metabolic Activation: RAT, LIVER, S-9, Method: STANDARD PLATE): active; positive | mutagenic call (Strain/Indicator: TA1535, Metabolic Activation: HAMSTER, LIVER, S-9, AROCLOR 1254, Method: PREINCUBATION): active; positive | mutagenic call (Strain/Indicator: TA1535, Metabolic Activation: HAMSTER, LIVER, S-9, AROCLOR 1254, Method: STANDARD PLATE): active; positive | mutagenic call (Strain/Indicator: TA1535, Metabolic Activation: HAMSTER, LIVER, S-9, Method: PREINCUBATION): active; positive | mutagenic call (Strain/Indicator: TA1535, Metabolic Activation: HAMSTER, LIVER, S-9, Method: STANDARD PLATE): active; positive | mutagenic call (Strain/Indicator: TA1535, Metabolic Activation: MOUSE, LIVER, S-9, AROCLOR 1254, Method: PREINCUBATION): active; positive | mutagenic call (Strain/Indicator: TA1535, Metabolic Activation: MOUSE, LIVER, S-9, AROCLOR 1254, Method: STANDARD PLATE): active; positive | mutagenic call (Strain/Indicator: TA1535, Metabolic Activation: MOUSE, LIVER, S-9, Method: PREINCUBATION): active; positive | mutagenic call (Strain/Indicator: TA1535, Metabolic Activation: MOUSE, LIVER, S-9, Method: STANDARD PLATE): active; positive | mutagenic call (Strain/Indicator: TA1535, Metabolic Activation: NONE, Method: PREINCUBATION): active; positive | mutagenic call (Strain/Indicator: TA1535, Metabolic Activation: NONE, Method: STANDARD PLATE): active; positive | mutagenic call (Strain/Indicator: TA1535, Metabolic Activation: RAT, LIVER, S-9, AROCLOR 1254, Method: PREINCUBATION): active; positive
